# Reference: patent US10363251B2, “(+)-morphinans as antagonists of toll-like receptor 9 and therapeutic uses thereof” (Mallinckrodt LLC, priority 2009, dated 2019)
# “Also recorded” adds a separate entry of the source.
# What was measured:
# [1] = system: hepatic IR injury in steatotic livers; experiment: IR injury in high fat diet (HFD) steatotic liver model; type: in vivo, mouse
# Excerpt: In addition to the scarcity of liver donations, many of the donor livers have a significant degree of steatosis which is known to increase IR injury. Thus, many otherwise healthy, but steatotic, livers are rejected for transplantation. If a drug can be shown to reduce IR injury in steatotic livers it would allow use of steatotic livers for transplantation and increase the total number of liver transplants that could be performed. To test this, mice were placed on a high fat diet (HFD) for 12 weeks to induce hepatic steatosis, which was followed by IR injury. For this, mice were subjected to hepatic ischemia by occluding the vasculature supplying the left and median lobes (ischemic lobes) of the liver by a microvascular clamp. After 1 hour of ischemia, the blood supply was resumed (reperfusion). Some animals were sacrificed after 3 hour of reperfusion, and others after 12 hours or reperfusion. The experimental group received Cmpd II-78 at a dose of 80 mg/kg given intraperitoneally 1 hour prior to starting ischemia. Cellular and molecular responses were assessed essentially as described above in Example 9.
# [2] = system: acute pancreatitis; experiment: Caerulein-induced acute pancreatitis model; type: in vivo, mouse; conditions: 30 mg/kg subcutaneously, vs saline
# Method: Acute pancreatitis can be induced in rodents by administration of caerulein, a CCK analog derived from derived from the Australian tree frog Litoria caerulea. To determine whether a (+)-morphinan could reduce the inflammation and/or consequences of pancreatitis, the following example was performed. Mice were administered subcutaneously an effective dose of caerulein and either saline or Cmpd II-78 (30 mg/kg). After the standard period of time, the mice were sacrificed. Pancreatic tissue sections were stained and examined for neutrophil infiltration, and pancreatic trypsin, serum amylase, and pancreatic caspase −1 activities were measure using standard assays.
smiles,measurement,setting,value
CN[C@@H]1CC[C@]2(O)[C@@H]3Cc4ccc(O)c5c4[C@]2(CCN3CC2CC2)[C@@H]1O5 [II-78],"IR-induced activation of MAP kinases (western blotting), steatotic livers",[1]; HFD,reduction of IR-induced activation of MAP kinases
same,"IR-induced cleavage and activation of TLR9 (western blotting), steatotic livers",[1]; HFD,reduction of IR-induced cleavage and activation of LTR9
same,"Histological Suzuki score (hepatic IR injury), steatotic livers","[1]; HFD 12 weeks, 80 mg/kg ip 1 hour prior to ischemia, 3 and 12 hours of reperfusion",reduced hepatic ischemic reperfusion (IR) injury in steatotic livers
same,"IR-induced serum ALT levels, steatotic livers","[1]; HFD, 80 mg/kg ip, 3 and 12 hours of reperfusion",reduced IR-induced serum alanine transaminase (ALT) levels in steatotic livers
same,"Anti-inflammatory molecule IL-1Ra mRNA, steatotic livers","[1]; HFD, 12 hours of reperfusion",increased an anti-inflammatory molecule
same,"IR-induced pro-inflammatory cytokines (IL-1β, MCP-1, NLPR3 mRNA), steatotic livers","[1]; HFD, 12 hours of reperfusion",reduced IR-induced pro-inflammatory cytokines
same,Neutrophil infiltration in the pancreas,[2],dramatically reduced; also recorded: reduced neutrophil infiltration in the pancreas
same,Pancreatic caspase 1 activity,[2],Significant reductions; also recorded: reduced pancreatic caspase 1 activity
same,Pancreatic trypsin activity,[2],Significant reductions; also recorded: reduced
same,Serum amylase,[2],Significant reductions; also recorded: reduced serum amylase
